How the values were obtained:
human JAK2 = molecular target: T1, human JAK2 (Homo sapiens, UniProt O60674); assay: JAK2 inhibition assay (polyGT substrate / Ulight-JAK1 peptide); assay type: biochemical; details: recombinant human JAK2 catalytic domain; polyGT or Ulight-JAK1 peptide assay
T1 construct: catalytic domain (amino acids 808-1132; catalog number PV4210); GST; purchased Invitrogen PV4210
Outline: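 Two JAK2 formats: a ^33P-ATP polyGT assay (1 μM cold ATP, 90 min, 30° C., cpm read-out) and a Ulight-JAK1 peptide assay read by Europium-anti-phosphotyrosine fluorescence after 60 min at room temperature.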

BA/F3 cell line = assay: BA/F3 viability assay; details: Mus musculus, BaF3, 48 h, read-out: BA/F3 IC50
human JAK1 = molecular target: T2, human JAK1 (Homo sapiens, UniProt P23458); assay: JAK1 inhibition assay (polyGT substrate / Ulight-JAK1 peptide); assay type: biochemical; details: recombinant human JAK1 catalytic domain; polyGT or Ulight-JAK1 peptide assay
T2 construct: catalytic domain, amino acids 866-1154; catalog number PV4774; purchased Invitrogen PV4774
T2 sequence (P23458 866-1154): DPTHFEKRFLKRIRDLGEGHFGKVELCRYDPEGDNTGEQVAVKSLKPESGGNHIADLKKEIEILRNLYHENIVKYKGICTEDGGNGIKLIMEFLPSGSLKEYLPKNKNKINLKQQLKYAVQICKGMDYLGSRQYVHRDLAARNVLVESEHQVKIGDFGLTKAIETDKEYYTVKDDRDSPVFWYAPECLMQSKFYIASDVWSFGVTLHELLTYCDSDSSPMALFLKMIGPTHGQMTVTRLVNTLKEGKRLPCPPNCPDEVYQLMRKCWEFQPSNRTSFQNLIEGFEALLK
Outline: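 Signal scaled between vehicle and 10 μM staurosporine. Radiometric polyGT reactions ran 45 min at 30 °C, counted after phosphoric-acid stop. Ulight peptide reactions ran 60 min at room temperature, fluorescence read after adding Eu-PT66 detection mix with EDTA.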

CTLL-2 cell line = assay: CTLL2 viability assay; assay type: cell-based; details: Mus musculus, IL-2 dependent CTLL2 viability, 24 h, ATP-lite
From the text: The protocol describes the methods to analyse the activity of compounds on their ability to sustain the IL2-dependent viability of CTLL2.
Final DMSO concentration was 0.1%.

T1 sequence (O60674 808-1132): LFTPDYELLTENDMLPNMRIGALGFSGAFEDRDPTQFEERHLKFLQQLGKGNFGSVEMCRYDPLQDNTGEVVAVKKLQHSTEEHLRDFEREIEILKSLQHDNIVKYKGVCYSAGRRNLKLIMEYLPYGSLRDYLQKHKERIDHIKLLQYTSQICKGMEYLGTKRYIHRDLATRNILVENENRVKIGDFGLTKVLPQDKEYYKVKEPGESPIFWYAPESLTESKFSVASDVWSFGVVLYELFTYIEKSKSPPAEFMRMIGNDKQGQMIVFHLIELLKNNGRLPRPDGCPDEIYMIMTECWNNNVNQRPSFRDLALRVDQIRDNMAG

Row | Compound | IC50 (human JAK2) [nM] | IC50 (BA/F3 cell line) [nM] | IC50 (human JAK1) [nM] | IC50 (CTLL-2 cell line) [nM]
1 | CCc1cc(CO)ccc1N(C)c1cc2c(cn1)ncn2C [Compound 81, (3-Ethyl-4-(methyl(1-methyl-1H-imidazo[4,5-c]pyridin-6-yl)amino)phenyl)MeOH] | 101 to 500 | > 5000 | 0.01 to 100 | > 1000
2 | CCc1cc(CN(C)S(C)(=O)=O)c(F)cc1N(C)c1cc2c(cn1)ncn2C [Compound 319, N-{5-Ethyl-2-fluoro-4-[methyl-(1-methyl-1H-imidazo[4,5-c]pyridin-6-yl)-amino]-benzyl}-N-methyl-methanesulfonamide] | 0.01 to 100 | 1000 to 5000 | 0.01 to 100 | > 1000
3 | CCc1cc(-c2cnc(NC(C)=O)nc2)ccc1N(C)c1cc2c(cn1)ncn2C [Compound 115, N-(5-(3-Ethyl-4-(methyl(1-methyl-1H-imidazo[4,5-c]pyridin-6-yl)amino)phenyl)pyrimidin-2-yl)acetamide] | 101 to 500 | > 5000 | 0.01 to 100 | > 1000
4 | CCc1cc(C2CN(S(C)(=O)=O)C2)ncc1N(C)c1cc2c(cn1)ncn2C [Compound 328, [4-Ethyl-6-(1-methanesulfonyl-azetidin-3-yl)-pyridin-3-yl]-methyl-(1-methyl-1H-imidazo[4,5-c]pyridin-6-yl)-amine] | 101 to 500 | > 5000 | 0.01 to 100 | > 1000
5 | CCc1cc(-c2cnn(C)c2)ccc1N(C)c1cc2c(cn1)ncn2C [Compound 93, N-(2-Ethyl-4-(1-methyl-1H-pyrazol-4-yl)phenyl)-N,1-dimethyl-1H-imidazo[4,5-d]pyridin-6-amine] | 0.01 to 100 | > 5000 | 0.01 to 100 | > 1000
6 | CCc1cc(C2CN(S(=O)(=O)C(F)F)C2)ncc1N(C)c1cc2c(cn1)ncn2C [Compound 329, {6-[1-(Difluoro-methanesulfonyl)-azetidin-3-yl]-4-ethyl-pyridin-3-yl}-methyl-(1-methyl-1H-imidazo[4,5-c]pyridin-6-yl)-amine] | 0.01 to 100 | > 5000 | 0.01 to 100 | 501 to 1000
7 | CCc1cc(CNS(C)(=O)=O)c(F)cc1N(C)c1cc2c(cn1)ncn2C [Compound 325, N-{5-Ethyl-2-fluoro-4-[methyl-(1-methyl-1H-imidazo[4,5-c]pyridin-6-yl)-amino]-benzyl}-methanesulfonamide] | 0.01 to 100 | > 5000 | 0.01 to 100 | > 1000

— patent publication US20130217664A1, “NOVEL COMPOUNDS USEFUL FOR THE TREATMENT OF DEGENERATIVE AND INFLAMMATORY DISEASES” (priority 2012, published 2013)
